We go through four molecules from US10010614B2, “Derivatives of GLP-1 like peptides, and uses thereof” (Novo Nordisk A/S, priority 2013, dated 2018).

Molecules are shown by their SMILES. Read-outs that look alike come from different tables or passages of the source. Numbered stars: 1 amine (or outer) side, 2 acyl side, 3 side chain; on linkers, the order of the positions; unused ones are H or OH. Square brackets hold non-standard residues; d marks the D form. Side chains are listed from the residue outwards. Peptide text beside a SMILES is read from it. * marks the point of attachment. X4 = O=C(O)CCCCCCCCCCCCCCCCCCC(=O)N1CCC(C(=O)N[C@@H](CCC(=O)NCCCOCCOCCOCCCN*)C(=O)O)CC1; C20 diacid = O=C(O)CCCCCCCCCCCCCCCCCCC(=O)*; γGlu = O=C(O)[C@H](CCC(=O)[*:2])N[*:1]; Desaminohistidyl = O=C(CCc1c[nH]cn1)*; Trx = NC[C@H]1CC[C@H](C(=O)O)CC1; Suc = O=C(CCC(=O)[*:2])[*:1]; AEEA = NCCOCCOCC(=O)O; Aib = CC(C)(N)C(=O)O

Experiment [1] addresses T1, human GLP-1 receptor (Homo sapiens, UniProt P43220).
T1 construct: expressed in transfected cells; host or cells: membranes prepared from BHK cells (parent line BHKTS13), clone FCW467-12A
The experiment can be described thus: GLP-1 receptor binding, competitive binding assay (125I-GLP-1, SPA) on isolated membranes.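 Note: test compounds added at a range of concentrations to membranes from cells expressing the human GLP-1 receptor, scored by displacement of labelled ligand, read with WGA SPA beads.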

Experiment [2] deals with T1, human GLP-1 receptor. The experiment can be described thus: In vitro potency, CRE luciferase reporter gene assay in BHK cells expressing the human GLP-1 receptor. Format: cell-based. The following applies: whole cell reporter gene assay, 3 h incubation, no HSA, averages of at least two replicates. On the procedure:
The purpose of this example is to test the activity, or potency, of the GLP-1 derivatives in vitro. The in vitro potency is the measure of human GLP-1 receptor activation in a whole cell assay.
Semaglutide was included for comparison.
In vitro potency was determined by measuring the response of the human GLP-1 receptor in a reporter gene assay. The assay was performed in a stably transfected BHK cell line that expresses the human GLP-1 receptor and contains the DNA for the cAMP response element (CRE) coupled to a promoter and the gene for firefly luciferase (CRE luciferase). When the human GLP-1 receptor is activated it results in the production of cAMP, which in turn results in the luciferase protein being expressed. When assay incubation is completed the luciferase substrate (luciferin) is added and the enzyme converts luciferin to oxyluciferin to produce bioluminescence. The luminescence is measured as the readout for the assay.
The cells used in this assay (clone FCW467-12A/KZ10-1) were BHK cells with BHKTS13 as a parent cell line. The cells were derived from a clone (FCW467-12A) that expresses the human GLP-1 receptor and were established by further transfection with CRE luciferase to obtain the current clone.
The cells were cultured at 5% CO2 in Cell Culture Medium. They were aliquoted and stored in liquid nitrogen. Before each assay an aliquot is taken up and washed twice in PBS before being suspended at the desired concentration in the assay specific buffer. For 96-well plates the suspension was made to give a final concentration of 5×10^3 cells/well.
The following chemicals were used in the assay: Pluronic F-68 (10%) (Gibco 2404), human serum albumin (HSA) (Sigma A9511), ovalbumin (Sigma A5503), DMEM w/o phenol red (Gibco 11880-028), 1 M Hepes (Gibco 15630), Glutamax 100× (Gibco 35050) and steadylite plus (PerkinElmer 6016757).
Cell Culture Medium consisted of DMEM medium with 10% FBS (Fetal Bovine Serum; Invitrogen 16140-071), 1 mg/ml G418 (Invitrogen 15140-122), 240 nM MTX (methotrexate; Sigma M9929) and 1% pen/strep (penicillin/streptomycin; Invitrogen 15140-122).
Assay Medium consisted of DMEM w/o phenol red, 10 mM Hepes and 1× Glutamax. The Assay Buffer consisted of 2% ovalbumin and 0.2% Pluronic F-68 in Assay Medium.
1) Cell stocks were thawed in a 37° C. water bath.
2) Cells were washed three times in PBS.
3) The cells were counted and adjusted to 5×10^3 cells/50 μl (1×10^5 cells/ml) in Assay Medium. A 50 μl aliquot of cells was transferred to each well in the assay plate.
4) Stocks of the test compounds and reference compounds were diluted to a concentration of 0.2 μM in Assay Buffer. Compounds were diluted 10-fold to give the following concentrations: 2×10^−7 M, […]; 2×10^−9 M, 2×10^−10 M, 2×10^−11 M, 2×10^−12 M, 2×10^−13 M, and 2×10^−14 M. 5) A 50 μl aliquot of compound or blank was transferred from the dilution plate to the assay plate. Compounds were tested at the following final concentrations: 1×10^−7 M, 1×10^−8 M; 1×10^−9 M, 1×10^−10 M, 1×10^−11 M, 1×10^−12 M, 1×10^−13 M, and 1×10^−14 M. 6) The assay plate was incubated for 3 h in a 5% CO2 incubator at 37° C. 7) The assay plate was removed from the incubator and allowed to stand at room temperature for 15 min. 8) A 100 μl aliquot of steadylite plus reagent was added to each well of the assay plate (reagent was light sensitive). 9) Each assay plate was covered with aluminum foil to protect it from light and shaken for 30 min at room temperature. 10) Each assay plate was read in a Packard TopCount NXT instrument. Calculations and Results
The data from the TopCount instrument were transferred to GraphPad Prism software. The software performs a non-linear regression (log(agonist) vs response).
A minimum of two replicates was measured for each sample. The reported values are averages of the replicates.
For orientation: In a reporter assay the amount or activity of a reporter protein is the signal.

Where [3] appears, read: High HSA IC50 (nM), high serum albumin (2.0% HSA final assay concentration).
Where [4] appears, read: Low HSA IC50 (nM), low serum albumin (max. 0.001% final assay concentration).
[5] abbreviates: high serum albumin (2.0% HSA final assay concentration), read-out: High HSA IC50.
[6] abbreviates: low serum albumin (max. 0.001% final assay concentration), read-out: Low HSA IC50.

T1 sequence (P43220 24-463): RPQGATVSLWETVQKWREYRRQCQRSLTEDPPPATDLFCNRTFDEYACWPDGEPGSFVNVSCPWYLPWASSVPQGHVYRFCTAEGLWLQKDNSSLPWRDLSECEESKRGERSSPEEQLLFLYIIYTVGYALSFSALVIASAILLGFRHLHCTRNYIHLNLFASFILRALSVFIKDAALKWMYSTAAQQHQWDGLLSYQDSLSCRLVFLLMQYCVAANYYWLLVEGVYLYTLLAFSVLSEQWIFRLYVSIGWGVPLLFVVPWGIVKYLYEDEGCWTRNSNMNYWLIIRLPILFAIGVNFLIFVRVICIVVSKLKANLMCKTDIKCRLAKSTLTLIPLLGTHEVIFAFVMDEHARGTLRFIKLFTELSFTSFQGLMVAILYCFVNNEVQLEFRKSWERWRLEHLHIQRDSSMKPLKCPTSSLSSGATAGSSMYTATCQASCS

Broadly, the IC50 is the concentration at which inhibition is half-maximal. One may read the EC50 as the concentration needed to bring the measured effect to its halfway point. A higher EC50 goes with a less potent agent. As to `CC[C@H](C)[C@H](NC(=O)[C@H](Cc1ccccc1)NC(=O)[C@H](CCC(=O)O)NC(=O)[C@H](CCCNC(=N)N)NC(=O)[C@H](C)NC(=O)[C@H](C)NC(=O)[C@H](CCC(N)=O)NC(=O)[C@H](CCC(=O)O)NC(=O)[C@H](CCC(=O)O)NC(=O)[C@H](CC(C)C)NC(=O)[C@H](Cc1ccc(O)cc1)NC(=O)[C@H](CO)NC(=O)[C@H](CO)NC(=O)[C@@H](NC(=O)[C@H](CC(=O)O)NC(=O)[C@H](CO)NC(=O)[C@@H](NC(=O)[C@H](Cc1ccccc1)NC(=O)[C@@H](NC(=O)CNC(=O)[C@H](CCC(=O)O)NC(=O)C(C)(C)NC(=O)[C@@H](N)Cc1c[nH]cn1)[C@@H](C)O)[C@@H](C)O)C(C)C)C(=O)N[C@@H](C)C(=O)N[C@@H](Cc1c[nH]c2ccccc12)C(=O)N[C@@H](CC(C)C)C(=O)N[C@H](C(=O)N[C@@H](CCCNC(=N)N)C(=O)NCC(=O)N[C@@H](CCCNC(=N)N)C(=O)NCC(=O)N[C@@H](CCCCNC(=O)COCCOCCNC(=O)COCCOCCNC(=O)CC[C@H](NC(=O)[C@H]1CC[C@H](CNC(=O)CCCCCCCCCCCCCCCCCCC(=O)O)CC1)C(=O)O)C(=O)N1CCC[C@H]1C(=O)N[C@@H](CCC(=O)O)C(=O)NCC(=O)N[C@@H](CCCCNC(=O)COCCOCCNC(=O)COCCOCCNC(=O)CC[C@H](NC(=O)[C@H]1CC[C@H](CNC(=O)CCCCCCCCCCCCCCCCCCC(=O)O)CC1)C(=O)O)C(=O)O)C(C)C` [Example 12] (H-H[Aib]EGTFTSDVSSYLEEQAAREFIAWLVRGRGK([AEEA-AEEA-γGlu-Trx-C20 diacid])PEGK([AEEA-AEEA-γGlu-Trx-C20 diacid])-OH), the IC50 was 212 nM in experiment [1] (setting [3]) and 1.4 nM in experiment [1] (setting [4]). A half-maximal effect in experiment [2] (EC50) was put at 0.024 nM.
Turning to `CC[C@H](C)[C@H](NC(=O)[C@H](Cc1ccccc1)NC(=O)[C@H](CCC(=O)O)NC(=O)[C@H](CCCNC(=N)N)NC(=O)[C@H](C)NC(=O)[C@H](C)NC(=O)[C@H](CCC(N)=O)NC(=O)[C@H](CCC(=O)O)NC(=O)[C@H](CCC(=O)O)NC(=O)[C@H](CC(C)C)NC(=O)[C@H](Cc1ccc(O)cc1)NC(=O)[C@H](CO)NC(=O)[C@H](CO)NC(=O)[C@@H](NC(=O)[C@H](CC(=O)O)NC(=O)[C@H](CO)NC(=O)[C@@H](NC(=O)[C@H](Cc1ccccc1)NC(=O)[C@@H](NC(=O)CNC(=O)[C@H](CCC(=O)O)NC(=O)C(C)(C)NC(=O)CCc1cnc[nH]1)[C@@H](C)O)[C@@H](C)O)C(C)C)C(=O)N[C@@H](C)C(=O)N[C@@H](Cc1c[nH]c2ccccc12)C(=O)N[C@@H](CC(C)C)C(=O)N[C@H](C(=O)N[C@@H](CCCNC(=N)N)C(=O)NCC(=O)N[C@@H](CCCNC(=N)N)C(=O)NCC(=O)N[C@@H](CCCCNC(=O)COCCOCCNC(=O)COCCOCCNC(=O)COCCOCCNC(=O)COCCOCCNC(=O)CC[C@H](NC(=O)CCCCCCCCCCCCCCCCCCC(=O)O)C(=O)O)C(=O)NCC(=O)NCC(=O)N[C@@H](CO)C(=O)N[C@@H](CCCCNC(=O)COCCOCCNC(=O)COCCOCCNC(=O)COCCOCCNC(=O)COCCOCCNC(=O)CC[C@H](NC(=O)CCCCCCCCCCCCCCCCCCC(=O)O)C(=O)O)C(=O)O)C(C)C` [Example 20] (Desaminohistidyl-[Aib]EGTFTSDVSSYLEEQAAREFIAWLVRGRGK([AEEA-AEEA-AEEA-AEEA-γGlu-C20 diacid])GGSK([AEEA-AEEA-AEEA-AEEA-γGlu-C20 diacid])-OH; C-terminus assumed), the IC50 in experiment [1] (setting [5]) stood at 270 nM; in experiment [1] (setting [6]) it was 4.1 nM. This molecule yielded an EC50 in experiment [2] of 0.0084 nM.
Regarding `CC[C@H](C)[C@H](NC(=O)[C@H](Cc1ccccc1)NC(=O)[C@H](CCC(=O)O)NC(=O)[C@H](CCCNC(=N)N)NC(=O)[C@H](C)NC(=O)[C@H](C)NC(=O)[C@H](CCC(N)=O)NC(=O)[C@H](CCC(=O)O)NC(=O)[C@H](CCC(=O)O)NC(=O)[C@H](CC(C)C)NC(=O)[C@H](Cc1ccc(O)cc1)NC(=O)[C@H](CO)NC(=O)[C@H](CO)NC(=O)[C@@H](NC(=O)[C@H](CC(=O)O)NC(=O)[C@H](CO)NC(=O)[C@@H](NC(=O)[C@H](Cc1ccccc1)NC(=O)[C@@H](NC(=O)CNC(=O)[C@H](CCC(=O)O)NC(=O)C(C)(C)NC(=O)[C@@H](N)Cc1c[nH]cn1)[C@@H](C)O)[C@@H](C)O)C(C)C)C(=O)N[C@@H](C)C(=O)N[C@@H](Cc1c[nH]c2ccccc12)C(=O)N[C@@H](CC(C)C)C(=O)N[C@H](C(=O)N[C@@H](CCCNC(=N)N)C(=O)NCC(=O)N[C@@H](CCCNC(=N)N)C(=O)NCC(=O)N[C@@H](CCCCNC(=O)CCC(=O)NCCCOCCOCCOCCCNC(=O)CC[C@H](NC(=O)C1CCN(C(=O)CCCCCCCCCCCCCCCCCCC(=O)O)CC1)C(=O)O)C(=O)NCC(=O)NCC(=O)N[C@@H](CO)C(=O)N[C@@H](CCCCNC(=O)CCC(=O)NCCCOCCOCCOCCCNC(=O)CC[C@H](NC(=O)C1CCN(C(=O)CCCCCCCCCCCCCCCCCCC(=O)O)CC1)C(=O)O)C(=O)O)C(C)C` [Example 21] (H-H[Aib]EGTFTSDVSSYLEEQAAREFIAWLVRGRGK([Suc-X4])GGSK([Suc-X4])-OH; N-terminus and C-terminus assumed), the IC50 in experiment [1] (setting [3]) was 177 nM; in experiment [1] (setting [4]), 1.3 nM. This molecule gave an EC50 in experiment [2] of 0.019 nM.
With `CC[C@H](C)[C@H](NC(=O)[C@H](Cc1ccccc1)NC(=O)[C@H](CCC(=O)O)NC(=O)[C@H](CCCNC(=N)N)NC(=O)[C@H](C)NC(=O)[C@H](C)NC(=O)[C@H](CCC(N)=O)NC(=O)[C@H](CCC(=O)O)NC(=O)[C@H](CCC(=O)O)NC(=O)[C@H](CC(C)C)NC(=O)[C@H](Cc1ccc(O)cc1)NC(=O)[C@H](CO)NC(=O)[C@H](CO)NC(=O)[C@@H](NC(=O)[C@H](CC(=O)O)NC(=O)[C@H](CO)NC(=O)[C@@H](NC(=O)[C@H](Cc1ccccc1)NC(=O)[C@@H](NC(=O)CNC(=O)[C@H](CCC(=O)O)NC(=O)C(C)(C)NC(=O)[C@@H](N)Cc1c[nH]cn1)[C@@H](C)O)[C@@H](C)O)C(C)C)C(=O)N[C@@H](C)C(=O)N[C@@H](Cc1c[nH]c2ccccc12)C(=O)N[C@@H](CC(C)C)C(=O)N[C@H](C(=O)N[C@@H](CCCNC(=N)N)C(=O)NCC(=O)N[C@@H](CCCNC(=N)N)C(=O)NCC(=O)N[C@@H](CCCCNC(=O)COCCOCCNC(=O)COCCOCCNC(=O)COCCOCCNC(=O)COCCOCCNC(=O)CC[C@H](NC(=O)CCCCCCCCCCCCCCCCCCC(=O)O)C(=O)O)C(=O)NCC(=O)NCC(=O)N[C@@H](CO)C(=O)N[C@@H](CCCCNC(=O)COCCOCCNC(=O)COCCOCCNC(=O)COCCOCCNC(=O)COCCOCCNC(=O)CC[C@H](NC(=O)CCCCCCCCCCCCCCCCCCC(=O)O)C(=O)O)C(=O)O)C(C)C` [Example 19] (H-H[Aib]EGTFTSDVSSYLEEQAAREFIAWLVRGRGK([AEEA-AEEA-AEEA-AEEA-γGlu-C20 diacid])GGSK([AEEA-AEEA-AEEA-AEEA-γGlu-C20 diacid])-OH; N-terminus and C-terminus assumed), the half-maximal inhibitory concentration (IC50) was 142 nM in experiment [1] (setting [5]) and 2.4 nM in experiment [1] (setting [6]). Also, the EC50 in experiment [2] is 0.0062 nM.
